These results are taken from ChEMBL document CHEMBL1909046, “DrugMatrix in vitro pharmacology data”.

A word on the IC50: it is the concentration that inhibits the measured activity by half. By Ki is commonly meant the dissociation constant of the complex between target and ligand, obtained from inhibition or displacement.

One assay deals with T1, Substance-K receptor (Homo sapiens, UniProt P21452).
T1 sequence (P21452 whole entry): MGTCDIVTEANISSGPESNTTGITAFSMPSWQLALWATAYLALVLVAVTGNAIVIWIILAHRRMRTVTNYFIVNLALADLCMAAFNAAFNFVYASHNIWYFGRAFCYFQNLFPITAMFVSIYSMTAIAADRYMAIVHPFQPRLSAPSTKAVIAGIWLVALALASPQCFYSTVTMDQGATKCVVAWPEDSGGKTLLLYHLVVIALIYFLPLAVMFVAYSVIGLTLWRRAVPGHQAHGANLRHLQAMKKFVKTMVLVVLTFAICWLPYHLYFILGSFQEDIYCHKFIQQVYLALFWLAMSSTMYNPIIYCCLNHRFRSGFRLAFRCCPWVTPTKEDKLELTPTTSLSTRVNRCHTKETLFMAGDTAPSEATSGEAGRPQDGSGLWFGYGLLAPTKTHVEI
It is filed as cell membranes, CHO, Membrane.

The next assay deals with Acetylcholinesterase (Homo sapiens, UniProt P22303). Kind of assay: DRUGMATRIX: Acetylcholinesterase enzyme inhibition (substrate: acetylthiocholine). The class given is cell-based, HEK293. The following applies: Not Active = under 50% inhibition at 10 µM.
A further assay deals with Melanocortin receptor 3 (Homo sapiens, UniProt P41968). It is filed as cell membranes, Membrane. The following applies: hek293.
Assay [1] in a line: DRUGMATRIX: Phorbol Ester radioligand binding (ligand: [3H] PDBu). It is filed as cell membranes, Mus musculus, ICR, Brain, Membrane. The following applies: Not Active = under 50% inhibition at 10 µM.
A further assay concerns the target T2, Adenosine receptor A3 (Homo sapiens, UniProt P0DMS8).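 Note: radioligand binding assay with AB-MECA serving as the labeled ligand; in other assays of this panel Not Active means under 50% inhibition at 10 µM.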
T2 sequence (P0DMS8 whole entry): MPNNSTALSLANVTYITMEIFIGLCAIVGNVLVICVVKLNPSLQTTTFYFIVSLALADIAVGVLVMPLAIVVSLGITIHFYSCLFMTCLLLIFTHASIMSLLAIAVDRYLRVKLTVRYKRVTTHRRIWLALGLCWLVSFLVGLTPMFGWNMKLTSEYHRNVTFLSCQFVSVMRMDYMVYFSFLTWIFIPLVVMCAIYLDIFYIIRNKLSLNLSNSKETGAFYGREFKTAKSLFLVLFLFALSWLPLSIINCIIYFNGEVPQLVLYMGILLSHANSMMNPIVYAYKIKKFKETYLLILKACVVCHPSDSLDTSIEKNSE
It is filed as cell membranes, CHO-K1, Membrane. The following applies: for Ki: read-out: Ki.

A short description of assay [2]: DRUGMATRIX: Glutamate, Kainate radioligand binding (ligand: [3H] Kainic acid). The following applies: Not Active = under 50% inhibition at 10 µM. It is filed as cell membranes, Rattus norvegicus, Wistar, Brain, Membrane.

Chain of Acetylcholinesterase (P22303 whole entry): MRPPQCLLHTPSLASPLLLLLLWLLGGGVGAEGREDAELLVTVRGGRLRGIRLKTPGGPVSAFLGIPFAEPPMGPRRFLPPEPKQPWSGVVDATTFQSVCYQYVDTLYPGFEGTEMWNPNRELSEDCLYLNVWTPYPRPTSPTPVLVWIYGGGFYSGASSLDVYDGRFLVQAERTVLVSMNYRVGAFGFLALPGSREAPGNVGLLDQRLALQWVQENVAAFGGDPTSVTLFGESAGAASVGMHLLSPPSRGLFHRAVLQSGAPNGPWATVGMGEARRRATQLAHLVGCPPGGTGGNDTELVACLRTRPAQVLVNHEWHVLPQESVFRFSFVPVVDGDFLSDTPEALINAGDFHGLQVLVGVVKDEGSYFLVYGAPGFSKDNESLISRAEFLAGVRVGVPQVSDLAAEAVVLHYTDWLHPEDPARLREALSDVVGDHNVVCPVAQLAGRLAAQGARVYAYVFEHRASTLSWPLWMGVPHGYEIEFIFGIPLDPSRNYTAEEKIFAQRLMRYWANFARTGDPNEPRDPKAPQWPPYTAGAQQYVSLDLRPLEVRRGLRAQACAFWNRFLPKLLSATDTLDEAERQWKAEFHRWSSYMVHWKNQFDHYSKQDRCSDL
Chain of Melanocortin receptor 3 (P41968 whole entry): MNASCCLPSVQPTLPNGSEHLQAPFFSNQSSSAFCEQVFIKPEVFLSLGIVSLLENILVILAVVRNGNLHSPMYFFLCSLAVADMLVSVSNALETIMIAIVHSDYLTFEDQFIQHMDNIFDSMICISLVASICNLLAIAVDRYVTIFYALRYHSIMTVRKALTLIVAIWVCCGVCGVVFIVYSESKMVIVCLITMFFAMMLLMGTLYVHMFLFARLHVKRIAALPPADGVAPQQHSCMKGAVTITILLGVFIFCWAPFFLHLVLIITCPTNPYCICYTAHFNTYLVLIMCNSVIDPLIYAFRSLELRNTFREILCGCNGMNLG

On to `COc1cc(N)nc2[nH]c(-c3ccc(F)cc3)c(-c3ccncc3)c12`, for which the IC50 entry (at Substance-K receptor (cho); against Acetylcholinesterase (hek293); on Melanocortin receptor 3; in assay [1]; on Adenosine receptor A3 (cho-k1); in assay [2]) was “Not Active” each time. In addition, the inhibition constant (Ki) entry in assay [1] and in assay [2] was “Not Active” in each case.
For `CNS(=O)(=O)Cc1ccc2[nH]cc(CCN(C)C)c2c1`, the IC50 result (on Substance-K receptor (cho); at Acetylcholinesterase (hek293); against Melanocortin receptor 3; in assay [1]; at Adenosine receptor A3 (cho-k1); in assay [2]) was “Not Active” throughout. Besides, the Ki entry in assay [1] and in assay [2] was “Not Active” each time.
`CCCc1nn(C)c2c(=O)[nH]c(-c3cc(S(=O)(=O)N4CCN(C)CC4)ccc3OCC)nc12`: the IC50 entry (against Substance-K receptor (cho); on Acetylcholinesterase (hek293); on Melanocortin receptor 3; in assay [1]; against Adenosine receptor A3 (cho-k1); in assay [2]) was “Not Active” in each case. In addition, the Ki entry in assay [1] and in assay [2] was “Not Active” throughout.
As to `COc1ccc(/C=C/C(=O)Nc2ccccc2C(=O)O)cc1OC`, the half-maximal inhibitory concentration (IC50) result (against Substance-K receptor (cho); on Acetylcholinesterase (hek293); against Melanocortin receptor 3; in assay [1]; against Adenosine receptor A3 (cho-k1); in assay [2]) was “Not Active” throughout. Besides, the Ki result in assay [1] and in assay [2] was “Not Active” throughout.
With `CCOC(N)=O`, the concentration for half-maximal inhibition (IC50) result (against Substance-K receptor (cho); against Acetylcholinesterase (hek293); at Melanocortin receptor 3; in assay [1]; at Adenosine receptor A3 (cho-k1); in assay [2]) was “Not Active” throughout. Besides, the inhibitory constant (Ki) result in assay [1] and in assay [2] was “Not Active” throughout.
For `CC(=O)Nc1nnc(S(N)(=O)=O)s1` [ACETAZOLAMIDE], the IC50 result on Substance-K receptor (cho), against Acetylcholinesterase (hek293), at Melanocortin receptor 3 and against Adenosine receptor A3 (cho-k1) was “Not Active” each time.
For the compound `O=c1[nH]c2ccccc2n1CCCN1CCC(n2c(=O)[nH]c3cc(Cl)ccc32)CC1` [DOMPERIDONE], the half-inhibitory concentration (IC50) result on Substance-K receptor (cho), against Acetylcholinesterase (hek293), on Melanocortin receptor 3 and against Adenosine receptor A3 (cho-k1) was “Not Active” each time.
Turning to `CC1=C(CC(=O)O)c2cc(F)ccc2/C1=C\c1ccc(S(C)(=O)=O)cc1` [EXISULIND], the half-maximal inhibitory concentration (IC50) entry (on Substance-K receptor (cho); on Acetylcholinesterase (hek293); against Melanocortin receptor 3; in assay [1]; against Adenosine receptor A3 (cho-k1); in assay [2]) was “Not Active” in each case. Moreover, the inhibition constant (Ki) entry in assay [1] and in assay [2] was “Not Active” each time.
As for `CC(C)OC(=O)C(C)(C)Oc1ccc(C(=O)c2ccc(Cl)cc2)cc1` [FENOFIBRATE], the IC50 entry is “Not Active” on Substance-K receptor (cho), 15.6 µM at Acetylcholinesterase (read-out: IC50), “Not Active” on Melanocortin receptor 3 and 5.7 µM at Adenosine receptor A3 (read-out: IC50). Moreover, at Adenosine receptor A3, the Ki was 3.22 µM.
On to `OCCN1CCN(CCCN2c3ccccc3Sc3ccc(C(F)(F)F)cc32)CC1` [FLUPHENAZINE], for which the IC50 was 22.5 µM at Substance-K receptor (read-out: IC50), “Not Active” against Acetylcholinesterase (hek293), “Not Active” at Melanocortin receptor 3 and 11.9 µM at Adenosine receptor A3 (read-out: IC50). For the same compound, the inhibitory constant (Ki) is 7.49 µM on Substance-K receptor (read-out: Ki) and 6.75 µM on Adenosine receptor A3.
In the case of `CN1C2CCCC1CC(NC(=O)c1nn(C)c3ccccc13)C2` (stereo not drawn) [GRANISETRON], the 50% inhibitory concentration (IC50) result on Substance-K receptor (cho), against Acetylcholinesterase (hek293), against Melanocortin receptor 3 and on Adenosine receptor A3 (cho-k1) was “Not Active” throughout.
As for `Nc1nc2c(c(=O)[nH]1)N(C=O)C(CNc1ccc(C(=O)N[C@@H](CCC(=O)O)C(=O)O)cc1)CN2` (stereo partly drawn) [LEUCOVORIN], the IC50 entry (on Substance-K receptor (cho); against Acetylcholinesterase (hek293); at Melanocortin receptor 3; in assay [1]; on Adenosine receptor A3 (cho-k1); in assay [2]) was “Not Active” throughout. Besides, the Ki entry in assay [1] and in assay [2] was “Not Active” in each case.
Consider `C[C@@H](O)[C@H]1C(=O)N2C(C(=O)O)=C(S[C@@H]3CN[C@H](C(=O)N(C)C)C3)[C@H](C)[C@H]12` [MEROPENEM], for which the 50% inhibitory concentration (IC50) entry (against Substance-K receptor (cho); on Acetylcholinesterase (hek293); against Melanocortin receptor 3; in assay [1]; against Adenosine receptor A3 (cho-k1); in assay [2]) was “Not Active” in each case. In addition, the inhibition constant (Ki) entry in assay [1] and in assay [2] was “Not Active” in each case.
As to `CC[C@@H](CO)NC(=O)[C@@H]1C=C2c3cccc4c3c(cn4C)C[C@H]2N(C)C1` [METHYSERGIDE], the IC50 entry against Substance-K receptor (cho), at Acetylcholinesterase (hek293), on Melanocortin receptor 3 and on Adenosine receptor A3 (cho-k1) was “Not Active” in each case.
Consider `CCN(CC)CC#CCOC(=O)C(O)(c1ccccc1)C1CCCCC1` (stereo not drawn) [OXYBUTYNIN], for which the IC50 result against Substance-K receptor (cho), against Acetylcholinesterase (hek293), against Melanocortin receptor 3 and at Adenosine receptor A3 (cho-k1) was “Not Active” throughout.
As to `O=P(O)(O)C(O)(Cc1cccnc1)P(=O)(O)O` [RISEDRONIC ACID], the half-maximal inhibitory concentration (IC50) result (on Substance-K receptor (cho); on Acetylcholinesterase (hek293); against Melanocortin receptor 3; in assay [1]; at Adenosine receptor A3 (cho-k1); in assay [2]) was “Not Active” in each case. The Ki entry in assay [1] and in assay [2] was “Not Active” throughout.
In the case of `CN(CCOc1ccc(CC2SC(=O)NC2=O)cc1)c1ccccn1` (stereo not drawn) [ROSIGLITAZONE], the half-inhibitory concentration (IC50) result (against Substance-K receptor (cho); against Acetylcholinesterase (hek293); against Melanocortin receptor 3; in assay [1]; on Adenosine receptor A3 (cho-k1); in assay [2]) was “Not Active” each time. The Ki result in assay [1] and in assay [2] was “Not Active” throughout.
Regarding `C=C(C)[C@H]1Cc2c(ccc3c2O[C@@H]2COc4cc(OC)c(OC)cc4[C@@H]2C3=O)O1` [ROTENONE], the IC50 entry (on Substance-K receptor (cho); on Acetylcholinesterase (hek293); against Melanocortin receptor 3; in assay [1]; against Adenosine receptor A3 (cho-k1); in assay [2]) was “Not Active” in each case. Moreover, the inhibition constant (Ki) result in assay [1] and in assay [2] was “Not Active” in each case.
On to `C#CCN(C)[C@H](C)Cc1ccccc1` [SELEGILINE], for which the IC50 result (on Substance-K receptor (cho); on Acetylcholinesterase (hek293); at Melanocortin receptor 3; in assay [1]; against Adenosine receptor A3 (cho-k1); in assay [2]) was “Not Active” each time. Further, the Ki result in assay [1] and in assay [2] was “Not Active” throughout.
Take `CO[C@H]1C[C@@H]2CC[C@@H](C)[C@@](O)(O2)C(=O)C(=O)N2CCCC[C@H]2C(=O)O[C@H]([C@H](C)C[C@@H]2CC[C@@H](O)[C@H](OC)C2)CC(=O)[C@H](C)/C=C(\C)[C@@H](O)[C@@H](OC)C(=O)[C@H](C)C[C@H](C)/C=C/C=C/C=C/1C` [SIROLIMUS]: the IC50 entry (against Substance-K receptor (cho); against Acetylcholinesterase (hek293); at Melanocortin receptor 3; in assay [1]; against Adenosine receptor A3 (cho-k1); in assay [2]) was “Not Active” throughout. For the same compound, the Ki entry in assay [1] and in assay [2] was “Not Active” throughout.
For `CN[C@@H]1[C@H](O)[C@H](NC)[C@H]2O[C@@]3(O)C(=O)C[C@@H](C)O[C@H]3O[C@@H]2[C@H]1O` [SPECTINOMYCIN], the concentration for half-maximal inhibition (IC50) entry (on Substance-K receptor (cho); against Acetylcholinesterase (hek293); against Melanocortin receptor 3; in assay [1]; against Adenosine receptor A3 (cho-k1); in assay [2]) was “Not Active” in each case. Also, the Ki entry in assay [1] and in assay [2] was “Not Active” in each case.
Consider `Nc1ccc(S(=O)(=O)Nc2ncccn2)cc1` [SULFADIAZINE], for which the IC50 result (at Substance-K receptor (cho); at Acetylcholinesterase (hek293); against Melanocortin receptor 3; in assay [1]; on Adenosine receptor A3 (cho-k1); in assay [2]) was “Not Active” in each case. For the same compound, the Ki result in assay [1] and in assay [2] was “Not Active” each time.
Take `COc1ncnc(NS(=O)(=O)c2ccc(N)cc2)c1OC` [SULFADOXINE]: the 50% inhibitory concentration (IC50) result (against Substance-K receptor (cho); on Acetylcholinesterase (hek293); against Melanocortin receptor 3; in assay [1]; at Adenosine receptor A3 (cho-k1); in assay [2]) was “Not Active” each time. In addition, the inhibitory constant (Ki) result in assay [1] and in assay [2] was “Not Active” throughout.
Take `O=c1n(CCCN2CCN(c3cccc(Cl)c3)CC2)nc2ccccn12` [TRAZODONE]: the half-maximal inhibitory concentration (IC50) entry at Substance-K receptor (cho), at Acetylcholinesterase (hek293), against Melanocortin receptor 3 and on Adenosine receptor A3 (cho-k1) was “Not Active” in each case.
